Laboratory results taken from BindingDB's records for doi:10.1021/cc100073a (Amgen, 2010).
pIC50: −log10 of the molar value. Several values for one entry are separate records, joined by “and”; a condition that tells them apart may be missing. Identical values can stand only once.

Legend:
Assay in all cases: PHD Enzymatic Assay
[1] = molecular target: Egl nine homolog 1 (Homo sapiens, UniProt Q9GZT9)
Description: (§1) PHD1,2,3 activity was measured utilizing homogeneous time-resolved fluroescence energy transfer techology by detecting the trans-4-hydroxylatio of HIF-1alpha residue pro564 in biotin-hHIR-1alpha(558-574)(Biotin-DLEMLAPYIPMDDDFQL)peptide substrate resulting in a recognition by the Europium-tagged Von Hippel Lindau, Elongin B and Dlongin C heterotrimeric complex (VCB-Eu complex)

[2] = molecular target: Prolyl hydroxylase EGLN2 (Homo sapiens, UniProt Q96KS0)
Sequence of Prolyl hydroxylase EGLN2 (Q96KS0 whole entry): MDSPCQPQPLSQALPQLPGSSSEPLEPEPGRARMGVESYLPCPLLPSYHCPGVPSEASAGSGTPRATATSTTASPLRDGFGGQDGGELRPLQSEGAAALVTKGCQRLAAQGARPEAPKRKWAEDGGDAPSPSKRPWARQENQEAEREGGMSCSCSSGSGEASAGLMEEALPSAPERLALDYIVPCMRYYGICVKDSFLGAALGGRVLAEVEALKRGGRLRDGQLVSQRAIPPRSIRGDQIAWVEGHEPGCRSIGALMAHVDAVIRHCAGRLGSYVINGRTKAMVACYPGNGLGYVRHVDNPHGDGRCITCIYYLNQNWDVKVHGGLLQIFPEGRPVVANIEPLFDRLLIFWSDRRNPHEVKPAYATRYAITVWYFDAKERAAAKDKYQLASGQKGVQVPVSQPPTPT
Description: as §1

[3] = molecular target: Prolyl hydroxylase EGLN3 (Homo sapiens, UniProt Q9H6Z9)
Sequence of Prolyl hydroxylase EGLN3 (Q9H6Z9 whole entry): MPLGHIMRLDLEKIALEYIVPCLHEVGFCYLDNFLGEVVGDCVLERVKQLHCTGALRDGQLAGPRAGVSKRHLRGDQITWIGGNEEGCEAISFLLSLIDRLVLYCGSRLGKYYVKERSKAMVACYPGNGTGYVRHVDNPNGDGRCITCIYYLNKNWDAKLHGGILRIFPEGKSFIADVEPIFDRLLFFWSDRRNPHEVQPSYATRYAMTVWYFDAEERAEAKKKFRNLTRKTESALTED
Description: as §1

Sequence of Egl nine homolog 1 (Q9GZT9 whole entry): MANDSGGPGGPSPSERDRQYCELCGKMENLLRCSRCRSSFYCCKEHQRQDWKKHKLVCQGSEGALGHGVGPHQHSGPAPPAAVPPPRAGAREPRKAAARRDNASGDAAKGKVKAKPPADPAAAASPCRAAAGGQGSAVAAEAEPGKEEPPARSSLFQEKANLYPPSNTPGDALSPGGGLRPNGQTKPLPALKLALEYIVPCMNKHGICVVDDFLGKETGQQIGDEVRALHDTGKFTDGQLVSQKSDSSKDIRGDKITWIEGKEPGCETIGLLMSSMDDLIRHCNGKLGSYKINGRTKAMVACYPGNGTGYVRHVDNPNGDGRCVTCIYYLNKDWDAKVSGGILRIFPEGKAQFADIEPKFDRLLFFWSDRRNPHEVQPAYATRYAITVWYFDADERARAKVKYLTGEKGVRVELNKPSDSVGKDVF

pIC50 [1] | pIC50 [2] | pIC50 [3] | Structure (SMILES)
6.58 | – | – | CC(=O)N[C@@H](CO)C(=O)NCc1ccc2c(c1)c(O)c(C(=O)NCC(=O)O)c(=O)n2C [PHD Inhibitor, 8{5}]
6.53 | – | – | CC(=O)NCC(=O)NCc1ccc2c(c1)c(O)c(C(=O)NCC(=O)O)c(=O)n2C [PHD Inhibitor, 8{4}]
– | 7.66 and 8.07 | 7.70 and 8.28 | Cn1c(=O)c(C(=O)NCC(=O)O)c(O)c2cc(CNC(=O)[C@@H](Cc3ccccc3)NC(=O)[C@@H](Cc3ccccc3)NC(=O)c3ccccc3)ccc21 [PHD Inhibitor, 12{2,4,1}]
7.46 | 8.37 | 8.35 | CC(=O)N[C@@H](Cc1ccc2ccccc2c1)C(=O)N[C@@H](Cc1ccccc1)C(=O)NCc1ccc2c(c1)c(O)c(C(=O)NCC(=O)O)c(=O)n2C [PHD Inhibitor, 12{1,1,2}]
7.17 | 7.96 | 7.79 | CC(=O)N[C@@H](CC(C)C)C(=O)N[C@H](Cc1ccccc1)C(=O)NCc1ccc2c(c1)c(O)c(C(=O)NCC(=O)O)c(=O)n2C [PHD Inhibitor, 12{2,6,2}]
7.35 | 8.12 | 8.05 | CC(=O)N[C@@H](Cc1ccccc1)C(=O)N[C@H](Cc1ccccc1)C(=O)NCc1ccc2c(c1)c(O)c(C(=O)NCC(=O)O)c(=O)n2C [PHD Inhibitor, 12{2,5,2}]
7.38 | 8.29 | 7.87 | CC(=O)N[C@@H](Cc1ccc2ccccc2c1)C(=O)NCC(=O)NCc1ccc2c(c1)c(O)c(C(=O)NCC(=O)O)c(=O)n2C [PHD Inhibitor, 12{4,1,2}]
6.39 | – | – | CC(=O)N[C@@H](CCCCN)C(=O)NCc1ccc2c(c1)c(O)c(C(=O)NCC(=O)O)c(=O)n2C [PHD Inhibitor, 8{7}]
5.53 | 7.02 | 6.78 | Cn1c(=O)c(C(=O)NCC(=O)O)c(O)c2cc(CNC(=O)[C@H](Cc3ccccc3)NC(=O)[C@H](Cc3ccccc3)NC(=O)CCN3CCOCC3)ccc21 [PHD Inhibitor, 12{1,5,3}]
6.28 | – | – | CC(=O)N[C@H](CC(C)C)C(=O)NCc1ccc2c(c1)c(O)c(C(=O)NCC(=O)O)c(=O)n2C [PHD Inhibitor, 8{3}]
5.81 | 7.31 | 7.40 | Cn1c(=O)c(C(=O)NCC(=O)O)c(O)c2cc(CNC(=O)[C@@H](Cc3ccccc3)NC(=O)C[C@H](Cc3ccccc3)NC(=O)c3ccccc3)ccc21 [PHD Inhibitor, 12{2,3,1}]
6.95 | 7.84 | 7.77 | CC(C)C[C@@H](NC(=O)C(C)(C)C)C(=O)N[C@H](Cc1ccccc1)C(=O)NCc1ccc2c(c1)c(O)c(C(=O)NCC(=O)O)c(=O)n2C [PHD Inhibitor, 12{2,6,4}]
5.96 | 7.49 | 7.11 | CC(C)C[C@H](NC(=O)[C@H](Cc1cccc2ccccc12)NC(=O)C(C)(C)C)C(=O)NCc1ccc2c(c1)c(O)c(C(=O)NCC(=O)O)c(=O)n2C [PHD Inhibitor, 12{3,1,4}]
6.86 | – | – | CC(=O)N[C@@H](CC(=O)O)C(=O)NCc1ccc2c(c1)c(O)c(C(=O)NCC(=O)O)c(=O)n2C [PHD Inhibitor, 8{6}]
7.43 and 7.04 | 8.14 and 7.91 | 7.93 and 7.87 | CC(=O)N[C@H](Cc1ccccc1)C(=O)N[C@H](Cc1ccccc1)C(=O)NCc1ccc2c(c1)c(O)c(C(=O)NCC(=O)O)c(=O)n2C [PHD Inhibitor, 12{2,3,2}]
6.51 | 7.22 | 7.73 | Cn1c(=O)c(C(=O)NCC(=O)O)c(O)c2cc(CNC(=O)[C@@H](Cc3ccccc3)NC(=O)[C@@H](Cc3ccc4ccccc4c3)NC(=O)C(C)(C)C)ccc21 [PHD Inhibitor, 12{2,1,4}]
6.95 | – | – | CC(=O)N[C@H](Cc1ccccc1)C(=O)NCc1ccc2c(c1)c(O)c(C(=O)NCC(=O)O)c(=O)n2C [PHD Inhibitor, 8{2}]
7.03 | 7.87 | 8.19 | CC(=O)N[C@H](Cc1ccc2ccccc2c1)C(=O)N[C@H](Cc1ccccc1)C(=O)NCc1ccc2c(c1)c(O)c(C(=O)NCC(=O)O)c(=O)n2C [PHD Inhibitor, 12{2,1,2}]
6.26 | – | – | CC(=O)NCc1ccc2c(c1)c(O)c(C(=O)NCC(=O)O)c(=O)n2C [PHD Inhibitor, 5]
7.06 and 6.98 | 7.89 and 7.84 | 7.90 and 7.88 | Cn1c(=O)c(C(=O)NCC(=O)O)c(O)c2cc(CNC(=O)[C@@H](Cc3ccccc3)NC(=O)[C@@H](Cc3ccccc3)NC(=O)C(C)(C)C)ccc21 [PHD Inhibitor, 12{2,3,4}]
6.32 | – | – | CC(=O)N[C@@H](Cc1ccccc1)C(=O)NCc1ccc2c(c1)c(O)c(C(=O)NCC(=O)O)c(=O)n2C [PHD Inhibitor, 8{1}]
